According to patent US11840686B2, “Modulation of prekallikrein (PKK) expression” (Ionis Pharmaceuticals, Inc., priority 2013, dated 2023):
Strand notation (5' to 3'): a small letter for the sugar, then the base; units joined by * are phosphorothioate-linked, units joined directly phosphodiester-linked; [ ] holds rarer units or linkages, { } end groups; capitals alone tell only the bases. e = 2'-O-(2-methoxyethyl) (MOE); [5mC] = 5-methylcytosine; d = 2'-deoxy (DNA)

Test system: human PKK mRNA
Test: Antisense inhibition of human PKK mRNA in HepaRG cells, 5,000 nM (Example 2)
Type: cell-based
Conditions: electroporation with 5,000 nM antisense oligonucleotide, approx. 24 hours, PKK mRNA by RT-PCR (RTS3454), relative to untreated control cells
Method: Additional antisense oligonucleotides were designed targeting a PKK nucleic acid and were tested for their effects on PKK mRNA in vitro.
The chimeric antisense oligonucleotides in the tables below were designed as 5-10-5 MOE gapmers, 4-9-4 MOE gapmers, 4-10-4 MOE gapmers, 4-10-3 MOE gapmers, 3-10-4 MOE gapmers, or 3-10-3 MOE gapmers. The 5-10-5 MOE gapmers are 20 nucleosides in length, wherein the central gap segment comprises of ten 2′-deoxynucleosides and is flanked by wing segments on the 5′ direction and the 3′ direction comprising five nucleosides each. The 4-9-4 MOE gapmers are 17 nucleosides in length, wherein the central gap segment comprises of nine 2′-deoxynucleosides and is flanked by wing segments on the 5′ direction and the 3′ direction comprising four nucleosides each. The 4-10-4 MOE gapmers are 18 nucleosides in length, wherein the central gap segment comprises of ten 2′-deoxynucleosides and is flanked by wing segments on the 5′ direction and the 3′ direction comprising four nucleosides each. The 4-10-3 MOE gapmers are 17 nucleosides in length, wherein the central gap segment comprises of ten 2′-deoxynucleosides and is flanked by wing segments on the 5′ direction and the 3′ direction comprising four and three nucleosides respectively. The 3-10-4 MOE gapmers are 17 nucleosides in length, wherein the central gap segment comprises often 2′-deoxynucleosides and is flanked by wing segments on the 5′ direction and the 3′ direction comprising three and four nucleosides respectively. The 3-10-3 MOE gapmers are 16 nucleosides in length, wherein the central gap segment comprises of ten 2′-deoxynucleosides and is flanked by wing segments on the 5′ direction and the 3′ direction comprising three nucleosides each. Each nucleoside in the 5′ wing segment and each nucleoside in the 3′ wing segment has a 2′-O-methoxyethyl modification. The internucleoside linkages throughout each gapmer are phosphorothioate linkages. All cytosine residues throughout each gapmer are 5-methylcytosines. “Start site” indicates the 5′-most nucleoside to which the gapmer is targeted in the human gene sequence. “Stop site” indicates the 3′-most nucleoside to which the gapmer is targeted in the human gene sequence.
Cultured HepaRG™ cells at a density of 20,000 cells per well were transfected using electroporation with 5,000 nM antisense oligonucleotide. After a treatment period of approximately 24 hours, RNA was isolated from the cells and PKK mRNA levels were measured by quantitative real-time PCR. Human primer probe set RTS3454 was used to measure mRNA levels. PKK mRNA levels were adjusted according to total RNA content, as measured by RIBOGREEN®. The antisense oligonucleotides were tested in a series of experiments that had similar culture conditions. Results are presented as percent inhibition of PKK, relative to untreated control cells.

[1] = Table 9 experiment, HepaRG cells, 20,000 cells per well
[2] = Table 10 experiment, HepaRG cells, 20,000 cells per well

## 546266 (eA*e[5mC]*eA*eG*eT*d[5mC]*dT*dT*d[5mC]*dT*dG*dG*dG*dA*dG*eT*eA*eA*eA*eG; antisense) [compound 546266]
Table 8, HepaRG cells
  % inhibition: 63%

## 546267 (e[5mC]*e[5mC]*eT*eT*eA*d[5mC]*dA*dG*dT*d[5mC]*dT*dT*d[5mC]*dT*dG*eG*eG*eA*eG*eT; antisense) [compound 546267]
Table 8, HepaRG cells
  % inhibition: 72%

## 546270 (eA*e[5mC]*eA*e[5mC]*eT*dT*dA*d[5mC]*dA*d[5mC]*dT*dT*d[5mC]*dT*d[5mC]*eT*eT*e[5mC]*e[5mC]*eT; antisense) [compound 546270]
Table 8, HepaRG cells
  % inhibition: 32%

## 546271 (eA*eG*eA*eA*eA*d[5mC]*dA*d[5mC]*dT*dT*dA*d[5mC]*dA*d[5mC]*dT*eT*e[5mC]*eT*e[5mC]*eT; antisense) [compound 546271]
Table 8, HepaRG cells
  % inhibition: 60%

## 546275 (eG*eA*eA*e[5mC]*e[5mC]*dA*dT*d[5mC]*d[5mC]*dA*dT*dA*dG*dA*dT*eA*eA*eT*e[5mC]*eT; antisense) [compound 546275]
Table 8, HepaRG cells
  % inhibition: 87%

## 546276 (eT*eG*eG*eA*eG*dA*dA*d[5mC]*d[5mC]*dA*dT*d[5mC]*d[5mC]*dA*dT*eA*eG*eA*eT*eA; antisense) [compound 546276]
Table 8, HepaRG cells
  % inhibition: 74%

## 546277 (eT*eG*eT*eG*eT*d[5mC]*d[5mC]*d[5mC]*dA*dT*dA*d[5mC]*dG*d[5mC]*dA*eA*eT*e[5mC]*e[5mC]*eT; antisense) [compound 546277]
Table 8, HepaRG cells
  % inhibition: 90%

## 546279 (eG*e[5mC]*eT*e[5mC]*e[5mC]*d[5mC]*dT*dT*dG*dT*dG*dT*d[5mC]*d[5mC]*d[5mC]*eA*eT*eA*e[5mC]*eG; antisense) [compound 546279]
Table 8, HepaRG cells
  % inhibition: 82%

## 546280 (e[5mC]*e[5mC]*eA*eG*eA*dG*d[5mC]*dT*d[5mC]*d[5mC]*d[5mC]*dT*dT*dG*dT*eG*eT*e[5mC]*e[5mC]*e[5mC]; antisense) [compound 546280]
Table 8, HepaRG cells
  % inhibition: 86%

## 546281 (eG*eT*eA*eA*e[5mC]*d[5mC]*dA*dG*dA*dG*d[5mC]*dT*d[5mC]*d[5mC]*d[5mC]*eT*eT*eG*eT*eG; antisense) [compound 546281]
Table 8, HepaRG cells
  % inhibition: 85%

## 546283 (antisense eT*e[5mC]*eT*e[5mC]*eA*dA*dA*dG*dA*dG*dT*dA*dA*d[5mC]*d[5mC]*eA*eG*eA*eG*e[5mC]) [compound 546283]
Table 8, HepaRG cells
  % inhibition: 88%

## 546284 (antisense e[5mC]*eA*e[5mC]*eA*eA*dT*d[5mC]*dT*d[5mC]*dA*dA*dA*dG*dA*dG*eT*eA*eA*e[5mC]*e[5mC]) [compound 546284]
Table 8, HepaRG cells
  % inhibition: 89%

## 546285 (antisense eG*eT*eT*eA*e[5mC]*dA*d[5mC]*dA*dA*dT*d[5mC]*dT*d[5mC]*dA*dA*eA*eG*eA*eG*eT) [compound 546285]
Table 8, HepaRG cells
  % inhibition: 76%

## 546288 (antisense eG*eT*eT*eT*eG*dT*dT*d[5mC]*d[5mC]*dT*d[5mC]*d[5mC]*dA*dA*d[5mC]*eA*eA*eT*eG*e[5mC]) [compound 546288]
Table 8, HepaRG cells
  % inhibition: 78%

## 546290 (antisense e[5mC]*e[5mC]*e[5mC]*e[5mC]*eA*dA*dG*dA*dA*dG*dA*dG*dT*dT*dT*eG*eT*eT*e[5mC]*e[5mC]) [compound 546290]
Table 8, HepaRG cells
  % inhibition: 86%

## 546293 (antisense eG*e[5mC]*e[5mC]*eT*e[5mC]*dT*dG*dA*dG*d[5mC]*dT*dG*dT*d[5mC]*dA*eG*e[5mC]*eT*eT*e[5mC]) [compound 546293]
Table 8, HepaRG cells
  % inhibition: 64%

## 546294 (antisense eG*eT*e[5mC]*e[5mC]*eT*dA*dT*dG*dA*dG*dT*dG*dA*d[5mC]*d[5mC]*e[5mC]*eT*e[5mC]*e[5mC]*eA) [compound 546294]
Table 8, HepaRG cells
  % inhibition: 72%

## 546295 (antisense e[5mC]*e[5mC]*e[5mC]*eA*e[5mC]*dT*dG*dG*dT*dG*dT*d[5mC]*d[5mC]*dT*dA*eT*eG*eA*eG*eT) [compound 546295]
Table 8, HepaRG cells
  % inhibition: 67%

## 546296 (antisense eG*eA*eA*eG*e[5mC]*d[5mC]*d[5mC]*dA*dT*d[5mC]*dA*dA*dA*dG*d[5mC]*eA*eG*eT*eG*eG) [compound 546296]
Table 8, HepaRG cells
  % inhibition: 27%

## 546297 (antisense eT*eA*eT*eA*eG*dA*dT*dG*d[5mC]*dG*d[5mC]*d[5mC]*dA*dA*dA*e[5mC]*eA*eT*e[5mC]*e[5mC]) [compound 546297]
Table 8, HepaRG cells
  % inhibition: 82%

## 546299 (antisense eA*eT*eG*e[5mC]*e[5mC]*dA*d[5mC]*dT*dA*dT*dA*dG*dA*dT*dG*e[5mC]*eG*e[5mC]*e[5mC]*eA) [compound 546299]
Table 8, HepaRG cells
  % inhibition: 84%

## 546300 (antisense eT*eA*eA*eT*eG*dT*d[5mC]*dT*dG*dA*d[5mC]*dA*dG*dA*dT*eT*eT*eA*eA*eA) [compound 546300]
Table 8, HepaRG cells
  % inhibition: 58%

## 546302 (antisense eT*eG*eA*eG*eA*dA*dA*dG*dG*dT*dG*dT*dA*dT*d[5mC]*eT*eT*eT*eT*eG) [compound 546302]
Table 8, HepaRG cells
  % inhibition: 87%

## 546303 (antisense eT*eT*eT*eG*eT*dG*dA*dG*dA*dA*dA*dG*dG*dT*dG*eT*eA*eT*e[5mC]*eT) [compound 546303]
Table 8, HepaRG cells
  % inhibition: 77%

## 546306 (antisense eT*eT*eT*eG*eG*dT*dG*dA*dA*dT*dA*dA*dT*dA*dA*eT*e[5mC]*eT*e[5mC]*eT) [compound 546306]
[1]
  % inhibition: 65%
[2]
  % inhibition: 71%

## 546307 (antisense eT*eA*eT*eA*eG*dT*dT*dT*dT*dG*dG*dT*dG*dA*dA*eT*eA*eA*eT*eA) [compound 546307]
[1]
  % inhibition: 12%
[2]
  % inhibition: 0%

## 546308 (antisense eA*e[5mC]*eT*eT*eT*dA*dT*dA*dG*dT*dT*dT*dT*dG*dG*eT*eG*eA*eA*eT) [compound 546308]
[1]
  % inhibition: 57%
[2]
  % inhibition: 43%

## 546309 (antisense e[5mC]*e[5mC]*e[5mC]*eT*eT*d[5mC]*dT*dG*dA*dG*dA*d[5mC]*dT*dT*dT*eA*eT*eA*eG*eT) [compound 546309]
[1]
  % inhibition: 88%
[2]
  % inhibition: 81%

## 546311 (antisense e[5mC]*eA*eT*eG*eA*dT*dT*d[5mC]*d[5mC]*d[5mC]*dT*dT*d[5mC]*dT*dG*eA*eG*eA*e[5mC]*eT) [compound 546311]
[1]
  % inhibition: 79%
[2]
  % inhibition: 76%

## 546313 (antisense eG*eG*e[5mC]*eG*eA*dT*dA*dT*d[5mC]*dA*dT*dG*dA*dT*dT*e[5mC]*e[5mC]*e[5mC]*eT*eT) [compound 546313]
[1]
  % inhibition: 60%
[2]
  % inhibition: 75%

## 546316 (antisense eG*e[5mC]*e[5mC]*eT*eG*dG*dA*dG*dT*dT*dT*dT*dA*dT*d[5mC]*eA*eA*eG*eG*e[5mC]) [compound 546316]
[1]
  % inhibition: 51%
[2]
  % inhibition: 60%

## 546317 (antisense eA*eG*eG*eA*eG*d[5mC]*d[5mC]*dT*dG*dG*dA*dG*dT*dT*dT*eT*eA*eT*e[5mC]*eA) [compound 546317]
[1]
  % inhibition: 12%
[2]
  % inhibition: 31%

## 546318 (antisense eA*eT*eT*e[5mC]*eA*dA*dA*dG*dG*dA*dG*d[5mC]*d[5mC]*dT*dG*eG*eA*eG*eT*eT) [compound 546318]
[1]
  % inhibition: 47%
[2]
  % inhibition: 46%

## 546319 (antisense e[5mC]*eA*eG*eT*eG*dT*dA*dA*dT*dT*d[5mC]*dA*dA*dA*dG*eG*eA*eG*e[5mC]*e[5mC]) [compound 546319]
[1]
  % inhibition: 50%
[2]
  % inhibition: 61%
